According to US20100268187A1, “PACKAGING FOR SIROLIMUS AND COMPOSITION THEREOF” (Ranbaxy Laboratories Limited, priority 2009, published 2010):

Test: Stability studies of sirolimus particles packed in vacuum sealed impermeable container at 25° C. and 60% RH, impurities by gradient HPLC
Assay type: physicochemical
Settings: three months
Excerpt: Sirolimus particles (d90-4.1 micron) were packed in a bag made up of laminate having a polyester and a polyethylene layer wherein the layers have a thickness of 12 micron and 75 micron, respectively. The bag was sealed under vacuum. The vacuum sealed bag was put into second bag made up of laminate having polyester, aluminium foil, polyester and polyethylene layer wherein the layers have a thickness of 12 micron, 12 micron, 12 micron and 75 microns, respectively. The second bag was sealed under vacuum and was subjected to stability studies at 25° C. and 60% RH for three months.
Quantitative determination was carried out using Gradient High Performance Liquid Chromatography with a mixture of ammonium phosphate buffer and an organic phase (acetonitrile and tetrahydrofuran) as the mobile phase, ACE C18, HL, 5 μm column as a stationary phase and a UV detector.

CO[C@H]1C[C@@H]2CC[C@@H](C)[C@@](O)(O2)C(=O)C(=O)N2CCCC[C@H]2C(=O)O[C@H]([C@H](C)C[C@@H]2CC[C@@H](O)[C@H](OC)C2)CC(=O)[C@H](C)/C=C(\C)[C@@H](O)[C@@H](OC)C(=O)[C@H](C)C[C@H](C)/C=C/C=C/C=C/1C [sirolimus particles, Sirolimus]
Stability on storage: stable
